Data set [1] concerns Hep 3B2. The experiment in a line: Induction of autophagic flux in human Hep3B cells harbouring mCherry-egfp-LC3 assessed as reduction in number of yellow puncta ratio at 10 nM incubated for 15 mins in presence of gamabufotalin by laser scanning confocal microscopic analysis. It counts as functional, cell-based.
In data set [2] the test system is Hep 3B2. The data set is described as follows: Induction of apoptosis in human Hep3B cells assessed as decrease in bcl-2 level at 10 nM incubated for 48 hrs in presence of gamabufotalin by immunoblot analysis. Type of data set: functional, cell-based. (In western blotting, separated proteins are transferred to a membrane and probed.)
For data set [3], the system named is Hep 3B2. The data set is described as follows: Induction of apoptosis in human Hep3B cells assessed as early apoptotic cells at 10 nM incubated for 48 hrs by Annexin V-FITC/PI staining based flow cytometry method (reference value: 1.3%). Type of data set: functional. (In flow cytometry, cells or beads pass a laser one at a time.)
In data set [4] the test system is Huh-7. The data set is described as follows: Induction of apoptosis in human Huh-7 cells assessed as increase in cleaved PARP level at 10 nM incubated for 48 hrs in presence of gamabufotalin by immunoblot analysis. It counts as functional, cell-based.
The subject of data set [5] is Hep 3B2. The data set is described as follows: Induction of apoptosis in human Hep3B cells assessed as increase in cleaved caspase-3 level at 10 nM incubated for 48 hrs in presence of gamabufotalin by immunoblot analysis. Type of data set: functional, cell-based.
In data set [6] the test system is Huh-7. The data set is described as follows: Induction of apoptosis in human Huh-7 cells assessed as viable cells at 10 nM incubated for 48 hrs by Annexin V-FITC/PI staining based flow cytometry method (reference value: 91.5%). It counts as functional. The following applies: read-out: Activity.
In data set [7] the test system is Huh-7. The experiment in a line: Induction of apoptosis in human Huh-7 cells assessed as increase in caspase-3 level at 10 nM incubated for 48 hrs in presence of gamabufotalin by immunoblot analysis. It counts as functional, cell-based.
The subject of data set [8] is Hep 3B2. The data set is described as follows: Induction of apoptosis in human Hep3B cells assessed as late apoptotic cells at 10 nM incubated for 48 hrs in presence of gamabufotalin by Annexin V-FITC/PI staining based flow cytometry method (reference value: 3.5%). It counts as functional.
In data set [9] the test system is Hep 3B2. The data set is described as follows: Induction of autophagic flux in human Hep3B cells assessed as increase in LC3-I expression at upto 25 nM incubated for 48 hrs by Western blot analysis. It counts as functional, cell-based.
Data set [10] concerns Hep 3B2. The experiment in a line: Induction of apoptosis in human Hep3B cells assessed as viable cells at 25 nM incubated for 48 hrs by Annexin V-FITC/PI staining based flow cytometry method (reference value: 93.3%). Type of data set: functional. The following applies: read-out: Activity.
Data set [11] has as its system Hep 3B2. The experiment in a line: Antiproliferative activity against human Hep3B cells assessed as cell viability incubated for 24 hrs by CCK-8. It counts as functional, cell-based.
The test system of data set [12] is Hep 3B2. The experiment in a line: Induction of apoptosis in human Hep3B cells assessed as viable cells at 25 nM incubated for 48 hrs by Annexin V-FITC/PI staining based flow cytometry method (reference value: 94.0%). It counts as functional. Conditions: read-out: Activity.
In data set [13] the test system is Hep 3B2. The data set is described as follows: Induction of apoptosis in human Hep3B cells assessed as viable cells at 25 nM measured after 48 hrs in presence of Z-VAD-FMK by annexin V-FITC/Propidium iodide staining based flow cytometric analysis (reference value: 95.6%). Conditions: read-out: Activity. It counts as functional.
Data set [14] in a line: Toxicity in mouse assessed as effect on spleen at 5 mg/kg,ip administered every second day for 3 weeks by H and E staining based microscopic method. Type of data set: organism-based. The following applies: in vivo, 504 h.
In data set [15] the test system is Huh-7. The experiment in a line: Induction of apoptosis in human Huh-7 cells assessed as upregulation of cleaved caspase-3 level […] incubated for 48 hrs in presence of 4,6-dimorpholino-N-(4-nitrophenyl)-1,3,5-triazin-2-amine by immunoblot analysis. Type of data set: functional, cell-based.
In data set [16] the test system is Huh-7. The experiment in a line: Induction of apoptosis in human Huh-7 cells assessed as necrotic cells at 25 nM incubated for 48 hrs in presence of 4,6-dimorpholino-N-(4-nitrophenyl)-1,3,5-triazin-2-amine by Annexin V-FITC/PI staining based flow cytometry method (reference value: 1.9%). It counts as functional.
For data set [17], the system named is Hep 3B2. The experiment in a line: Induction of apoptosis in human Hep3B cells assessed as necrotic cells at 25 nM incubated for 48 hrs in presence of 4,6-dimorpholino-N-(4-nitrophenyl)-1,3,5-triazin-2-amine by Annexin V-FITC/PI staining based flow cytometry method (reference value: 0.7%). It counts as functional.
The subject of data set [18] is Huh-7. The experiment in a line: Induction of autophagy in human Huh-7 cells assessed as restoration of ULK1 phosphorylation expression at 25 uM incubated for 48 hrs in presence of 4,6-dimorpholino-N-(4-nitrophenyl)-1,3,5-triazin-2-amine by immunoblot analysis. It counts as functional, cell-based.
In data set [19] the test system is Hep 3B2. The data set is described as follows: Induction of apoptosis in human Hep3B cells assessed as early apoptotic cells at 20 nM incubated for 48 hrs by Annexin V-FITC/PI staining based flow cytometry method (reference value: 3.9%). Type of data set: functional.
In data set [20] the test system is Huh-7. The data set is described as follows: Induction of apoptosis in human Huh-7 cells assessed as increase in cleaved caspase-3 expression at upto 25 nM incubated for 48 hrs by Western blot analysis. Type of data set: functional, cell-based.
Data set [21] has as its system Hep 3B2. The experiment in a line: Induction of apoptosis in human Hep3B cells assessed as viable cells at 25 nM incubated for 48 hrs in presence of chloroquine by Annexin V-FITC/PI staining based flow cytometry method (reference value: 94.0%). Type of data set: functional. The following applies: read-out: Activity.
Data set [22] relates to Hep 3B2. The data set is described as follows: Induction of apoptosis in human Hep3B cells assessed as late apoptotic cells at 25 nM measured after 48 hrs in presence of Z-VAD-FMK by annexin V-FITC/Propidium iodide staining based flow cytometric analysis (reference value: 2.4%). It counts as functional.
For data set [23], the system named is Huh-7. The data set is described as follows: Induction of apoptosis in human Huh-7 cells assessed as necrotic cells at 25 nM incubated for 48 hrs by Annexin V-FITC/PI staining based flow cytometry method (reference value: 1.9%). It counts as functional.
In data set [24] the test system is Huh-7. The data set is described as follows: Induction of autophagy in human Huh-7 cells harbouring mCherry-egfp-LC3 assessed as reduction in yellow puncta ratio at 25 nM incubated for 15 mins in presence of 4,6-dimorpholino-N-(4-nitrophenyl)-1,3,5-triazin-2-amine by laser scanning confocal microscopic analysis. Type of data set: functional, cell-based.
Data set [25] has as its system Hep 3B2. The experiment in a line: Induction of apoptosis in human Hep3B cells assessed as necrotic cells at 25 nM incubated for 48 hrs in presence of chloroquine by Annexin V-FITC/PI staining based flow cytometry method (reference value: 1.2%). Type of data set: functional.
Data set [26] relates to Huh-7. The experiment in a line: Induction of autophagic flux in human Huh-7 cells assessed as increase in LC3-II expression at upto 25 nM incubated for 48 hrs by Western blot analysis. It counts as functional, cell-based.
Data set [27] concerns Hep 3B2. The experiment in a line: Induction of autophagic flux in human Hep3B cells assessed as rescue of LC3-I accumulation at 25 uM incubated for 48 hrs in presence of chloroquine by Western blot analysis. Type of data set: functional, cell-based.
The nature of data set [28]: Toxicity in mouse assessed as effect on kidney at 5 mg/kg,ip administered every second day for 3 weeks by H and E staining based microscopic method. The following applies: in vivo, 504 h. Type of data set: organism-based.
Data set [29] concerns Hep 3B2. The experiment in a line: Antitumor activity against human Hep3B cells xenografted in nude mouse model assessed as downregulation of m-TOR phosphorylation expression expression at 5 mg/kg,ip administered every second day for 3 weeks by Western blot analysis. Type of data set: functional, organism-based.
Data set [30] has as its system Huh-7. The experiment in a line: Induction of apoptosis in human Huh-7 cells assessed as early apoptotic cells at 15 nM incubated for 48 hrs by Annexin V-FITC/PI staining based flow cytometry method (reference value: 1.7%). It counts as functional.
For data set [31], the system named is Hep 3B2. The experiment in a line: Induction of apoptosis in human Hep3B cells assessed as necrotic cells at 25 nM incubated for 48 hrs by Annexin V-FITC/PI staining based flow cytometry method (reference value: 0.2%). It counts as functional.
Data set [32] in a line: Toxicity in mouse assessed as effect on serum ALT level at 5 mg/kg,ip administered every second day for 3 weeks by H and E staining based microscopic method. Type of data set: organism-based. The following applies: in vivo, 504 h.
For data set [33], the system named is Hep 3B2. The data set is described as follows: Antitumor activity against human Hep3B cells xenografted in nude mouse model assessed as downregulation of Bcl-2 expression at 5 mg/kg,ip administered every second day for 3 weeks by Western blot analysis. It counts as functional, organism-based. A general note: In xenograft studies the graft and the host belong to different species.

Active and inactive are the calls of the source. The rule behind the calls is not given here.

As a reminder, the IC50 is the concentration that inhibits the measured activity by half.

In the case of `CCN(CC)CCCC(C)Nc1ccnc2cc(Cl)ccc12` (stereo not drawn) [CHLOROQUINE], the result in the data set with Hep 3B2 [1], in the data set with Hep 3B2 [2], with Huh-7 [4], in the data set on Hep 3B2 [5] and in the data set with Huh-7 [7] was Active. Besides, the Activity was 1.5% with Hep 3B2 [3] and 17.4% in the data set with Hep 3B2 [8]. The viability at 0.01 µM in the data set with Huh-7 [6] stood at 90.3%.
As to `C[C@]12CC[C@H](O)C[C@H]1CC[C@@H]1[C@@H]2[C@H](O)C[C@]2(C)[C@@H](c3ccc(=O)oc3)CC[C@]12O` [GAMABUFOTALIN], the result with Hep 3B2 [9], in the data set on Huh-7 [15], with Huh-7 [18], in the data set with Huh-7 [20], in the data set with Huh-7 [24] and with Huh-7 [26] was Active. Further, the outcome with Hep 3B2 [27], with Hep 3B2 [29] and in the data set on Hep 3B2 [33] was Active. In addition, the viability at 0.025 µM in the data set on Hep 3B2 [10] is 84.9%; with Hep 3B2 [12], 71.4%; with Hep 3B2 [13], 91.9%; in the data set on Hep 3B2 [21] it was 63.9%. Also, the IC50 in the data set on Hep 3B2 [11] worked out at 27 nM. For the same compound, the Activity result in [14] was “Non-Toxic”; with Huh-7 [16] it was 1.7%; with Hep 3B2 [17] it was 1.7%; in the data set with Hep 3B2 [19], 7.8%; with Hep 3B2 [22] it was 3.5%; in the data set on Huh-7 [23], 2.1%. The Activity is 0.8% with Hep 3B2 [25]; “Non-Toxic” in data set [28]; 4% in the data set on Huh-7 [30]; 0.6% in the data set on Hep 3B2 [31]; “Non-Toxic” in data set [32].

The values are drawn from ChEMBL document CHEMBL5257089, “Gamabufotalin Induces Apoptosis and Cytoprotective Autophagy through the mTOR Signaling Pathway in Hepatocellular Carcinoma” (J Nat Prod, 2023).
